How the values were obtained:
Assay in all cases: Kinase selectivity panel
Type in all cases: biochemical
ATM(h) = target: T1, ATM(h) (Homo sapiens, UniProt Q13315); details: read-out: Inhibition(%) @ 1 µM RK-019
T1 construct: purchased Eurofins Discovery Services (KinaseProfiler)
Summary of the method: (§1)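 ATP-site competition binding, in vitro; recombinant human kinase, single concentration 1 µM; % inhibition read-out.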

FGFR3(h) = target: T2, FGFR3(h) (Homo sapiens, UniProt P22607)
T2 construct: purchased Eurofins Discovery Services (KinaseProfiler)
Summary of the method: as §1

MINK(h) = target: T3, MINK(h) (Homo sapiens, UniProt Q8N4C8); details: read-out: Inhibition(%) @ 1 µM RK-019
T3 construct: purchased Eurofins Discovery Services (KinaseProfiler)
Summary of the method: as §1

Flt3(h) = target: T4, Flt3(h) (Homo sapiens, UniProt P36888); details: read-out: Inhibition(%) @ 1 µM RK-019
T4 construct: purchased Eurofins Discovery Services (KinaseProfiler)
Summary of the method: as §1

MYLK2(h) = target: T5, MYLK2(h) (Homo sapiens, UniProt Q9H1R3); details: read-out: Inhibition(%) @ 1 µM RK-019
T5 construct: purchased Eurofins Discovery Services (KinaseProfiler)
Summary of the method: as §1

PDGFRα(h) = target: T6, PDGFRα(h) (Homo sapiens, UniProt P16234); details: read-out: Inhibition(%) @ 1 µM RK-019
T6 construct: purchased Eurofins Discovery Services (KinaseProfiler)
Summary of the method: as §1

EGFR(T790M)(h) = target: T7, EGFR(T790M)(h) (Homo sapiens, UniProt P00533, T790M); details: read-out: Inhibition(%) @ 1 µM RK-019
T7 construct: purchased Eurofins Discovery Services (KinaseProfiler)
Summary of the method: as §1

[1] = target: T8, PI3 Kinase (p110b/p85b)(m) (Mus musculus, UniProt Q8BTI9); details: read-out: Inhibition(%) @ 1 µM RK-019
T8 construct: purchased Eurofins Discovery Services (KinaseProfiler)

NIM1(h) = target: T9, NIM1(h) (Homo sapiens, UniProt Q8IY84); details: read-out: Inhibition(%) @ 1 µM RK-019
T9 construct: purchased Eurofins Discovery Services (KinaseProfiler)
Summary of the method: as §1

BMPR2(h) = target: T10, BMPR2(h) (Homo sapiens, UniProt Q13873); details: read-out: Inhibition(%) @ 1 µM RK-019
T10 construct: purchased Eurofins Discovery Services (KinaseProfiler)
Summary of the method: as §1

TAO3(h) = target: T11, TAO3(h) (Homo sapiens, UniProt Q9H2K8); details: read-out: Inhibition(%) @ 1 µM RK-019
T11 construct: purchased Eurofins Discovery Services (KinaseProfiler)
Summary of the method: as §1

DCAMKL3(h) = target: T12, DCAMKL3(h) (Homo sapiens, UniProt Q9C098); details: read-out: Inhibition(%) @ 1 µM RK-019
T12 construct: purchased Eurofins Discovery Services (KinaseProfiler)
Summary of the method: as §1

CaMKIIγ(h) = target: T13, CaMKIIγ(h) (Homo sapiens, UniProt Q13555); details: read-out: Inhibition(%) @ 1 µM RK-019
T13 construct: purchased Eurofins Discovery Services (KinaseProfiler)
Summary of the method: as §1

MuSK(h) = target: T14, MuSK(h) (Homo sapiens, UniProt O15146); details: read-out: Inhibition(%) @ 1 µM RK-019
T14 construct: purchased Eurofins Discovery Services (KinaseProfiler)
Summary of the method: as §1

CDK9/cyclin T1(h) = target: T15, CDK9/cyclin T1(h) (Homo sapiens, UniProt P50750); details: read-out: Inhibition(%) @ 1 µM RK-019
T15 construct: purchased Eurofins Discovery Services (KinaseProfiler)
Summary of the method: as §1

HIPK1(h) = target: T16, HIPK1(h) (Homo sapiens, UniProt Q86Z02); details: read-out: Inhibition(%) @ 1 µM RK-019
T16 construct: purchased Eurofins Discovery Services (KinaseProfiler)
Summary of the method: as §1

CK1γ2(h) = target: T17, CK1γ2(h) (Homo sapiens, UniProt P78368); details: read-out: Inhibition(%) @ 1 µM RK-019
T17 construct: purchased Eurofins Discovery Services (KinaseProfiler)
Summary of the method: as §1

Arg(m) = target: T18, Arg(m) (Mus musculus, UniProt Q4JIM5); details: read-out: Inhibition(%) @ 1 µM RK-019
T18 construct: purchased Eurofins Discovery Services (KinaseProfiler)

CaMKIIβ(h) = target: T19, CaMKIIβ(h) (Homo sapiens, UniProt Q13554); details: read-out: Inhibition(%) @ 1 µM RK-019
T19 construct: purchased Eurofins Discovery Services (KinaseProfiler)
Summary of the method: as §1

BrSK1(h) = target: T20, BrSK1(h) (Homo sapiens, UniProt Q8TDC3); details: read-out: Inhibition(%) @ 1 µM RK-019
T20 construct: purchased Eurofins Discovery Services (KinaseProfiler)
Summary of the method: as §1

[2] = target: T21, PI3 Kinase (p110a(E545K)/p85a)(m) (Mus musculus, UniProt P42337, E545K); details: read-out: Inhibition(%) @ 1 µM RK-019
T21 construct: purchased Eurofins Discovery Services (KinaseProfiler)

AMPKα2(h) = target: T22, AMPKα2(h) (Homo sapiens, UniProt P54646); details: read-out: Inhibition(%) @ 1 µM RK-019
T22 construct: purchased Eurofins Discovery Services (KinaseProfiler)
Summary of the method: as §1

MRCKβ(h) = target: T23, MRCKβ(h) (Homo sapiens, UniProt Q9Y5S2); details: read-out: Inhibition(%) @ 1 µM RK-019
T23 construct: purchased Eurofins Discovery Services (KinaseProfiler)
Summary of the method: as §1

LOK(h) = target: T24, LOK(h) (Homo sapiens, UniProt O94804); details: read-out: Inhibition(%) @ 1 µM RK-019
T24 construct: purchased Eurofins Discovery Services (KinaseProfiler)
Summary of the method: as §1

TAK1(h) = target: T25, TAK1(h) (Homo sapiens, UniProt O43318); details: read-out: Inhibition(%) @ 1 µM RK-019
T25 construct: purchased Eurofins Discovery Services (KinaseProfiler)
Summary of the method: as §1

EphB4(h) = target: T26, EphB4(h) (Homo sapiens, UniProt P54760); details: read-out: Inhibition(%) @ 1 µM RK-019
T26 construct: purchased Eurofins Discovery Services (KinaseProfiler)
Summary of the method: as §1

NDR2(h) = target: T27, NDR2(h) (Homo sapiens, UniProt Q9Y2H1); details: read-out: Inhibition(%) @ 1 µM RK-019
T27 construct: purchased Eurofins Discovery Services (KinaseProfiler)
Summary of the method: as §1

GSK3α(h) = target: T28, GSK3α(h) (Homo sapiens, UniProt P49840); details: read-out: Inhibition(%) @ 1 µM RK-019
T28 construct: purchased Eurofins Discovery Services (KinaseProfiler)
Summary of the method: as §1

[3] = target: T29, PI3 Kinase (p110a(E542K)/p85a)(h) (Homo sapiens, UniProt P42336, E542K); details: read-out: Inhibition(%) @ 1 µM RK-019
T29 construct: purchased Eurofins Discovery Services (KinaseProfiler)
Summary of the method: as §1

[4] = target: T30, PI3 Kinase (p110a(E545K)/p85a)(h) (Homo sapiens, UniProt P42336, E545K); details: read-out: Inhibition(%) @ 1 µM RK-019
T30 construct: purchased Eurofins Discovery Services (KinaseProfiler)
Summary of the method: as §1

Rsk2(h) = target: T31, Rsk2(h) (Homo sapiens, UniProt P51812); details: read-out: Inhibition(%) @ 1 µM RK-019
T31 construct: purchased Eurofins Discovery Services (KinaseProfiler)
Summary of the method: as §1

Aurora-B(h) = target: T32, Aurora-B(h) (Homo sapiens, UniProt Q96GD4); details: read-out: Inhibition(%) @ 1 µM RK-019
T32 construct: purchased Eurofins Discovery Services (KinaseProfiler)
Summary of the method: as §1

PKBγ(h) = target: T33, PKBγ(h) (Homo sapiens, UniProt Q9Y243); details: read-out: Inhibition(%) @ 1 µM RK-019
T33 construct: purchased Eurofins Discovery Services (KinaseProfiler)
Summary of the method: as §1

Axl(h) = target: T34, Axl(h) (Homo sapiens, UniProt P30530); details: read-out: Inhibition(%) @ 1 µM RK-019
T34 construct: purchased Eurofins Discovery Services (KinaseProfiler)
Summary of the method: as §1

MAP4K4(h) = target: T35, MAP4K4(h) (Homo sapiens, UniProt O95819); details: read-out: Inhibition(%) @ 1 µM RK-019
T35 construct: purchased Eurofins Discovery Services (KinaseProfiler)
Summary of the method: as §1

[5] = target: T36, PI3 Kinase (p110a/p65a)(h) (Homo sapiens, UniProt P42336); details: read-out: Inhibition(%) @ 1 µM RK-019
T36 construct: purchased Eurofins Discovery Services (KinaseProfiler)
Summary of the method: as §1

T2 sequence (P22607 23-806): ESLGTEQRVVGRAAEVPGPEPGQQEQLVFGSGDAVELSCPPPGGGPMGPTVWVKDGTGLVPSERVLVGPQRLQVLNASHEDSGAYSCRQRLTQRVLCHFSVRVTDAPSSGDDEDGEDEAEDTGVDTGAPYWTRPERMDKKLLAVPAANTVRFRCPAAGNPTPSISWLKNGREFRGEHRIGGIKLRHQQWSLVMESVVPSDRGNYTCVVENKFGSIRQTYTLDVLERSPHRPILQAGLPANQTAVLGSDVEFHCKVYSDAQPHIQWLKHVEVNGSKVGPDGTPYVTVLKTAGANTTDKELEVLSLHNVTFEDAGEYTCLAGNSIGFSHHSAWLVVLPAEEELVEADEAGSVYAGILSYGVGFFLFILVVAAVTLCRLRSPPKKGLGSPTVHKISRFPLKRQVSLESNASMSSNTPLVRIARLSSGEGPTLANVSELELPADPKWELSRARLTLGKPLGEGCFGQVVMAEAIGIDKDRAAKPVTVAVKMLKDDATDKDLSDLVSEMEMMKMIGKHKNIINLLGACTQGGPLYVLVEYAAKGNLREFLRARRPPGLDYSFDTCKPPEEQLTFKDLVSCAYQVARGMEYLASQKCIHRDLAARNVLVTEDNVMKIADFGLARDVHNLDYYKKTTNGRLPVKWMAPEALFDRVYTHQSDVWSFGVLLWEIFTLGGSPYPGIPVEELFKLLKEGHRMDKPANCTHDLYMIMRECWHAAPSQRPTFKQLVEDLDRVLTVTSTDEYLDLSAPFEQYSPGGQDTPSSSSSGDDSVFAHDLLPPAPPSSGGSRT
T16 sequence (Q86Z02 whole entry): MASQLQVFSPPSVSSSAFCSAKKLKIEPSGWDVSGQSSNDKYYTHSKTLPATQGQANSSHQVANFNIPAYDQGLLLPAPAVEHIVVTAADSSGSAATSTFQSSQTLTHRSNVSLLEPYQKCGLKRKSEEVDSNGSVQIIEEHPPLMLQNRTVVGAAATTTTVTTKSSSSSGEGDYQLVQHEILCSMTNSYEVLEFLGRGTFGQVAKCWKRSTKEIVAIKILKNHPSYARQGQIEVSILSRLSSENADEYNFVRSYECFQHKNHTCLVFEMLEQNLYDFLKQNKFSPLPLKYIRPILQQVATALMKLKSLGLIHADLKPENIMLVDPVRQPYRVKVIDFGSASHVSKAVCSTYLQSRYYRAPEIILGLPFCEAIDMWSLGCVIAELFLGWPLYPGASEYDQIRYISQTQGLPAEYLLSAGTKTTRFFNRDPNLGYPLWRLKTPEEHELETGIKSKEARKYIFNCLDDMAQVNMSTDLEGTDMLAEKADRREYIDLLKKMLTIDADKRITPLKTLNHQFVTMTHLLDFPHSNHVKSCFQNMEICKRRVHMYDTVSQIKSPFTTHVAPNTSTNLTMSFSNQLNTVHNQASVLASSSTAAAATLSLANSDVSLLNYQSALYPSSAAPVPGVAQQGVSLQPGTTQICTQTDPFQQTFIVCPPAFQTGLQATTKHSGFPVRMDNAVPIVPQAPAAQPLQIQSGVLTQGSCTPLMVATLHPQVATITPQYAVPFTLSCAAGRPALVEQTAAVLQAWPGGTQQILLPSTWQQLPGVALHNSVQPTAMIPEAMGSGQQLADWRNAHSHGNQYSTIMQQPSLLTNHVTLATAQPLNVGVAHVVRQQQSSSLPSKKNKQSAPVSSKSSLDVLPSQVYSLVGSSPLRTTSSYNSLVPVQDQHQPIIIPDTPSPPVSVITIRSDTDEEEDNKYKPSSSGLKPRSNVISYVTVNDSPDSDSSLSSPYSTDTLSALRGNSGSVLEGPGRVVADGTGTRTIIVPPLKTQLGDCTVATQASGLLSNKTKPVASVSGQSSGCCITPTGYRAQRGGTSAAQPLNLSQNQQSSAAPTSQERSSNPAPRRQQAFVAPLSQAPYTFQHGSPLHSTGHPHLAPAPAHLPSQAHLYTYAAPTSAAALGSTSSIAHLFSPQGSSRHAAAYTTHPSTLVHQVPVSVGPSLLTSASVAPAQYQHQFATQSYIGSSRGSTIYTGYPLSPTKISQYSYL
T35 sequence (O95819 whole entry): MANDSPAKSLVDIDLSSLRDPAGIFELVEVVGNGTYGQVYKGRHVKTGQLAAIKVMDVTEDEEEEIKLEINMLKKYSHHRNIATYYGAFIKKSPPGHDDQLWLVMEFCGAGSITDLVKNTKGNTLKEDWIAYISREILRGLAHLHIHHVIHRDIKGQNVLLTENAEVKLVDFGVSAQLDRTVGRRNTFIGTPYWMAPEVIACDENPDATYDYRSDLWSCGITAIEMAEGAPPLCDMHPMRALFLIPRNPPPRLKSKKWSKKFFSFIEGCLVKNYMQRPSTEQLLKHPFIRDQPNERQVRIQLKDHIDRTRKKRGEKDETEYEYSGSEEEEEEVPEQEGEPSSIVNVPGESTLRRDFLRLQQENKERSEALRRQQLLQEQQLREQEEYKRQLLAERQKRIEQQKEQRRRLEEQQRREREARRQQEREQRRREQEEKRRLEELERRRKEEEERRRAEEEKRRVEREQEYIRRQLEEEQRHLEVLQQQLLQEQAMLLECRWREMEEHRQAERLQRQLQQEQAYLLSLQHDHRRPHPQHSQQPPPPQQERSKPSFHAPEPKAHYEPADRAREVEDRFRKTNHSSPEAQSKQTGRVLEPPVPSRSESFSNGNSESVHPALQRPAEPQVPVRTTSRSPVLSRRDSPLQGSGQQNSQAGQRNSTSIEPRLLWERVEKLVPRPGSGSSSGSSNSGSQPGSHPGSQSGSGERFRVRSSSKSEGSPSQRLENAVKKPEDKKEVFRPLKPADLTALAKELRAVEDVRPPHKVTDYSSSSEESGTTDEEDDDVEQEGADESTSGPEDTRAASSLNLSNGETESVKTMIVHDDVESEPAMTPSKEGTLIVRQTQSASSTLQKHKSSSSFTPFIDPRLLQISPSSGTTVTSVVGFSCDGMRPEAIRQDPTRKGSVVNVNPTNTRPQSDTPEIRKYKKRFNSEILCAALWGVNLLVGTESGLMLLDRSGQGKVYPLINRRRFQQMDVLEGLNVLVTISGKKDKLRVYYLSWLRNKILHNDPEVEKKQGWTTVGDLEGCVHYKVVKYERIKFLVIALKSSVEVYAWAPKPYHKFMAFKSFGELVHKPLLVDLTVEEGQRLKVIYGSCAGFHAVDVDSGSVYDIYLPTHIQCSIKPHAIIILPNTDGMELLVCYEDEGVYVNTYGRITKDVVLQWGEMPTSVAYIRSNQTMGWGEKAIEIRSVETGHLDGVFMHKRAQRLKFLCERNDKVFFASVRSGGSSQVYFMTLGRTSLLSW
T22 sequence (P54646 whole entry): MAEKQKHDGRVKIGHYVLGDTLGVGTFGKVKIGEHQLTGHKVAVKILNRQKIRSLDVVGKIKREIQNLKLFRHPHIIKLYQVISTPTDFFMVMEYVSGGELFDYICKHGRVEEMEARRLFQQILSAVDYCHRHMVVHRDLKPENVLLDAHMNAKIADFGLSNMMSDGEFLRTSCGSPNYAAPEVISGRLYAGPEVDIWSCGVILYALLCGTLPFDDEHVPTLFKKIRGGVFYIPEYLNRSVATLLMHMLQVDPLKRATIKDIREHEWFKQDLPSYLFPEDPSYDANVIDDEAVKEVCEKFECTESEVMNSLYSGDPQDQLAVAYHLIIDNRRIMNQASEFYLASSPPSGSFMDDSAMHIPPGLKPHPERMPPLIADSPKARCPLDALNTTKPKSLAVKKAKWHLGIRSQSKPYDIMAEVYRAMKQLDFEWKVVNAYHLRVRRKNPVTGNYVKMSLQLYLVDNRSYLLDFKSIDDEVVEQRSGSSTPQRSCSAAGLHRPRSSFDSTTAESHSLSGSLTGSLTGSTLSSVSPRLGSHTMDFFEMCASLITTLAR
T22 sequence (Q9Y478 whole entry partner): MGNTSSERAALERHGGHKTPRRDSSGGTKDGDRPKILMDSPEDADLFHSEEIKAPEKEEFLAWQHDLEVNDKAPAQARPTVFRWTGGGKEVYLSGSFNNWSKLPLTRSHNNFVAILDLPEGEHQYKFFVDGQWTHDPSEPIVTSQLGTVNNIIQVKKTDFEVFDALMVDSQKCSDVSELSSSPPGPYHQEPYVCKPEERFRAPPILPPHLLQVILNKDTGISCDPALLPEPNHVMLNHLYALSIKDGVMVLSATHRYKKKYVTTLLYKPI
T22 sequence (P54619 whole entry partner): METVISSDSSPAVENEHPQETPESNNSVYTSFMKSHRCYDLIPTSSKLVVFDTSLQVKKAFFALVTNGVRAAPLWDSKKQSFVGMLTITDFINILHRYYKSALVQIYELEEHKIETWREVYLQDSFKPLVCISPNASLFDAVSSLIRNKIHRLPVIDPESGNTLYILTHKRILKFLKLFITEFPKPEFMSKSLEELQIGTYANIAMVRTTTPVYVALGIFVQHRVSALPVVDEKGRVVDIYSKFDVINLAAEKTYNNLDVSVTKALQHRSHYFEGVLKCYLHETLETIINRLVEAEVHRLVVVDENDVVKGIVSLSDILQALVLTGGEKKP
T28 sequence (P49840 whole entry): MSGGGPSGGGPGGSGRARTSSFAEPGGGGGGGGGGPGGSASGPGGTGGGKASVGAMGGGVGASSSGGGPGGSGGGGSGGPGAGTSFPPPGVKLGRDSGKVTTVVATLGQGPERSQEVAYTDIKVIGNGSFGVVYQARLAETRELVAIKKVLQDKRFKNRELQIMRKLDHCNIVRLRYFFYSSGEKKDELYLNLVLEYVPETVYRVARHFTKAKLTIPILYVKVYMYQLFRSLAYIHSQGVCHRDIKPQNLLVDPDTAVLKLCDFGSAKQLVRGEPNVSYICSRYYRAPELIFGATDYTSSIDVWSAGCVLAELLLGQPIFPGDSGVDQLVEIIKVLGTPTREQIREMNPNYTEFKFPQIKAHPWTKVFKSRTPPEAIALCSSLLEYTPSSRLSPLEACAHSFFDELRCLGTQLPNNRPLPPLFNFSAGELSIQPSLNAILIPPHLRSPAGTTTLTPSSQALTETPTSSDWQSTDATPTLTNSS

COc1cc(OC)cc(N(CCN[C@H](C)CO)c2ccc3ncc(-c4cnn(C)c4)c(=O)n3c2)c1 [RK-019, (R)-7-((3,5-dimethoxyphenyl) (2-((1-hydroxypropan-2-yl)amino)ethyl)amino)-3-(1-methyl-1H-pyrazol-4-yl)-4H-pyrido [1,2-a]pyrimidin-4-one]
activity at 1 µM (ATM(h)): 105%
activity at 1 µM (FGFR3(h); FGFR3(h), read-out: Inhibition(%) @ 1 µM RK-019): -3%
inhibition at 1 µM (FGFR3(h); FGFR3, 1 µM, read-out: inhibition (hit in panel)): > 90%
activity at 1 µM (MINK(h)): 133%
activity at 1 µM (Flt3(h)): 123%
activity at 1 µM (MYLK2(h)): 88%
activity at 1 µM (PDGFRα(h)): 50%
activity at 1 µM (EGFR(T790M)(h)): 90%
activity at 1 µM [1]: 99%
activity at 1 µM (NIM1(h)): 103%
activity at 1 µM (BMPR2(h)): 116%
activity at 1 µM (TAO3(h)): 100%
activity at 1 µM (DCAMKL3(h)): 127%
activity at 1 µM (CaMKIIγ(h)): 106%
activity at 1 µM (MuSK(h)): 105%
activity at 1 µM (CDK9/cyclin T1(h)): 99%
activity at 1 µM (HIPK1(h)): 93%
activity at 1 µM (CK1γ2(h)): 97%
activity at 1 µM (Arg(m)): 88%
activity at 1 µM (CaMKIIβ(h)): 80%
activity at 1 µM (BrSK1(h)): 106%
activity at 1 µM [2]: 102%
activity at 1 µM (AMPKα2(h)): 109%
activity at 1 µM (MRCKβ(h)): 108%
activity at 1 µM (LOK(h)): 76%
activity at 1 µM (TAK1(h)): 102%
activity at 1 µM (EphB4(h)): 109%
activity at 1 µM (NDR2(h)): 108%
activity at 1 µM (GSK3α(h)): 85%
activity at 1 µM [3]: 98%
activity at 1 µM [4]: 100%
activity at 1 µM (Rsk2(h)): 149%
activity at 1 µM (Aurora-B(h)): 87%
activity at 1 µM (PKBγ(h)): 94%
activity at 1 µM (Axl(h)): 116%
activity at 1 µM (MAP4K4(h)): 82%
activity at 1 µM [5]: 94%
